Laboratory results reported in patent publication US20250090473A1, “Macrophage Targeted Immunotherapeutics” (The General Hospital Corporation, priority 2017, published 2025).
Read-outs that look alike come from different tables or passages of the source.

How the values were obtained:
[1] = tested on: murine M2-like macrophages; experiment: High-content morphological screening of macrophage re-education (M1 enrichment); type: cell-based; details: for M1 enrichment in response to drug treatment: variable concentrations, FIG. 5A
Method: Cells were maintained in the indicated medium at 37° C. and 5% CO2 and screened regularly for mycoplasma. RAW 264.7 cells were sourced from ATCC and maintained in Dulbecco's Modified Eagles Medium supplemented with 10% heat inactivated fetal calf serum (Atlanta Biologicals), 100 IU penicillin (Invitrogen), and 100 μg mL^−1 streptomycin (Invitrogen), and […] L-glutamine. The MC38 mouse colon adenocarcinoma cell lines were provided by Mark Smyth (QIMR Berghofer Medical Research Institute) with stable transfection of the H2B-Apple reporter to yield a MC38-H2B-mApple cell line employed in intravital microscopy studies. Murine bone marrow-derived macrophages (BMDMs) were isolated and derived by adaptation of published procedures known to those of skill in the art. Briefly, bone marrow was extracted from the surgically resected femur and tibia of naive C57BL/6 mice, dissociated and passed through a 40 μm strainer, and red blood cells lysed by ammonium chloride (StemCell Tech). Resultant bone marrow cells were plated in either 24-well (Corning 3527, for PCR analysis) or optical-bottom 384-well plates (Thermo Fisher 142761, for image analysis) at 1×10^6 cells mL^−1 in Iscove's Modified Dulbecco's Medium supplemented with 10% heat inactivated fetal calf serum, 100 IU penicillin, 100 μg ml^−1 streptomycin (Invitrogen) and 10 ng mL^−1 recombinant murine M-CSF (PeproTech, 315-02); media was replenished every two days. Human macrophages were derived from peripheral blood mononuclear cells isolated using Ficoll-Paque PLUS (GE Healthcare) gradient separation and derived in the presence of 50 ng mL^−1 recombinant human M-CSF (PeproTech, 300-25). Cell proliferation was assessed by PrestoBlue (Fisher) following manufacturer's protocols.
For morphological analysis, media was replenished with M-CSF-free media on day 7 followed by drug dosing (Table 1).
After 48 hours, cells were fixed with formaldehyde (30 min, 37° C.) and stained for actin (5.0 μg mL^−1 DyLight 554 Phalloidin, Cell Signaling Technology), cell membrane (5.0 μg mL^−1 Alexa Fluor 647 wheat germ agglutinin, Thermo Fisher) and nuclei (DAPI, Invitrogen) for 25 min at room temperature. Plates were washed by PBS prior to imaging on a custom Olympus-based automated high-content screening microscope. Four images were acquired per well in a 2×2 grid, imported into CellProfiler (Broad Institute) for pre-processing and segmentation (Table 2).
Computational cell classification was performed in CellProfiler Analyst (Broad Institute) by random forest assignment. Training data (examples provided, Supplementary Figure S1) consisted of approximately 50 healthy cells each representing undifferentiated (M0), M1-like, or M2-like phenotypes. The fast gentle algorithm was trained on the selected cells for […] determination of weights and thresholds for cell shape features. The resulting set of parameters was used to score all other images. The enrichment score for M1 cells was output back into the database and imported into KNIME to generate per-well and per-treatment averages.
Cell morphology was used as an integrated biomarker of cell function, including as an indicator for age and immunosuppressive capacity. The method that was used uses high-content image analysis via computational automated segmentation to extract features of single cells such as cellular radius, axis lengths, compactness, and eccentricity which are associated with the polarization state. […]

[2] = tested on: M2-like (IL-4 treated) murine macrophages; experiment: qPCR transcriptional analysis of M2-like (IL-4 treated) murine macrophages; type: cell-based; details: Mus musculus, Macrophage, M2-like macrophages cultured with R848, 24 hours, given as logIC50
Method: For transcriptional analysis, derived murine macrophages were treated with 10 ng mL^−1 recombinant mouse IL-4 (PeproTech 214-14) for 24 hours to induce an M2-like polarization state and subsequently dosed with fresh media supplemented by pharmacologic drugs at the prescribed concentrations. Macrophages treated only with IL-4 (10 ng mL^-1) or LPS (100 ng mL^-1) and IFNg (50 ng mL^-1) served as internal controls for M2-like and M1-like transcription profiles, respectively. […] Data are presented as the gene expression (fold change relative to hprt or β-actin, as indicated) or M1-likeness, calculated as described in Example 2, FIG. 20B. […]
A subset of drugs having a range of M1 enrichment activities were further scrutinized by qPCR analysis of representative M1-like (nos2, il12, and cd80) and M2-like (mrc1, arg1) transcripts. FIG. 20A is a set of two bar graphs depicting gene expression of M1-like and M2-like macrophages, expressed as fold change relative to hprt. […] M1-likeness is determined by summing the changes in expression for each gene resulting from treatment, normalized to the range of expression observed in the training data. […]

Compound	M1 enrichment in response to drug treatment [1]	EC50 ([1]; Mus musculus, Macrophage, dose response, 48 hours)	IC50 ([1]; Mus musculus, Macrophage, given as logIC50)	IC50 ([2]; read-out: logIC50 of IL12 transcription (converted))	IC50 ([2]; read-out: logIC50 of TLR7 expression (converted))
CCCCOc1nc(N)c2c(n1)N(Cc1cccc(CN3CCCC3)c1)CC(=O)N2 [GS9620]	M1 enrichments which were as pronounced as standard M1 induction by LPS and IFNγ	–	–	–	–
CCOCc1nc2c(N)nc3ccccc3c2n1CC(C)(C)O [R848, resiquimod]	–	14.1 nM	14.5 nM	398 nM	7.24 nM
COc1ccc(COc2ccc(Cc3cnc(N)nc3N)cc2OC)cc1 [GW2580]	exception	–	–	–	–
CCCN(CCC)C(=O)C1=Cc2ccc(-c3ccc(C(=O)N4CCCC4)cc3)cc2N=C(N)C1 [motolimod]	M1 enrichments which were as pronounced as standard M1 induction by LPS and IFNγ	–	–	–	–
